According to ChEMBL document CHEMBL6127034, “Design, synthesis and biological evaluation of a novel PAK1 degrader for the treatment of triple negative breast cancer” (Bioorg Med Chem, 2024):
Activity calls are given as the source filed them. The calls are words filed in the database; no cut-off is given here.

Tests used:
MDA-MB-231 [1] = assay: Antiproliferative activity against human MDA-MB-231 cells incubated for 48 hrs by MTT assay; format: functional, cell-based; details: MDA-MB-231, 48 h
MDA-MB-231 [2] = assay: Inhibition of cell proliferation of human MDA-MB-231 cells at 2.5 uM by crystal violet staining based colony formation assay; format: functional
MDA-MB-231 [3] = assay: Inhibition of 3D-spherioid formation of human MDA-MB-231 cells at 2.5 uM by crystal violet staining based colony formation assay; format: functional, cell-based
MDA-MB-231 [4] = assay: Inhibition of cell proliferation of human MDA-MB-231 cells at 2.5 uM by EdU staining based analysis; format: functional
MDA-MB-231 [5] = assay: Inhibition of cell proliferation of human MDA-MB-231 cells assessed as decrease in Ki-67 expression at 2.5 uM incubated for 24 hrs by immunofluorescence based analysis; format: functional
MDA-MB-231 [6] = assay: Inhibition of cell migration in human MDA-MB-231 cells at 2.5 uM incubated upto 48 hrs by wound healing assay; format: functional, cell-based
MDA-MB-231 [7] = assay: Inhibition of cell migration in human MDA-MB-231 cells at 2.5 uM incubated for 24 hrs by transwell assay; format: functional, cell-based
MDA-MB-231 [8] = assay: Induction of apoptosis in human MDA-MB-231 cells assessed as viable cells at 2.5 uM incubated for 12 to 48 hrs by Annexin V-FITC/PI staining based flow cytometry (reference value: 97.0 %); format: functional; details: time 12-48 hrs, read-out: Activity
MDA-MB-231 [9] = assay: Induction of apoptosis in human MDA-MB-231 cells assessed as early apoptotic cells at 2.5 uM incubated for 12 to 48 hrs by Annexin V-FITC/PI staining based flow cytometry (reference value: 1.12 %); format: functional; details: time 12-48 hrs
MDA-MB-231 [10] = assay: Induction of apoptosis in human MDA-MB-231 cells assessed as late apoptotic cells at 2.5 uM incubated for 12 to 48 hrs by Annexin V-FITC/PI staining based flow cytometry (reference value: 1.48 %); format: functional; details: time 12-48 hrs
MDA-MB-231 [11] = assay: Induction of apoptosis in human MDA-MB-231 cells assessed as necrotic cells at 2.5 uM incubated for 12 to 48 hrs by Annexin V-FITC/PI staining based flow cytometry (reference value: 0.43 %); format: functional; details: time 12-48 hrs
[12] = target: Serine/threonine-protein kinase PAK 1 (Homo sapiens, UniProt Q13153); assay: Inhibition of PAK1 (unknown origin)
Chain of Serine/threonine-protein kinase PAK 1 (Q13153 whole entry): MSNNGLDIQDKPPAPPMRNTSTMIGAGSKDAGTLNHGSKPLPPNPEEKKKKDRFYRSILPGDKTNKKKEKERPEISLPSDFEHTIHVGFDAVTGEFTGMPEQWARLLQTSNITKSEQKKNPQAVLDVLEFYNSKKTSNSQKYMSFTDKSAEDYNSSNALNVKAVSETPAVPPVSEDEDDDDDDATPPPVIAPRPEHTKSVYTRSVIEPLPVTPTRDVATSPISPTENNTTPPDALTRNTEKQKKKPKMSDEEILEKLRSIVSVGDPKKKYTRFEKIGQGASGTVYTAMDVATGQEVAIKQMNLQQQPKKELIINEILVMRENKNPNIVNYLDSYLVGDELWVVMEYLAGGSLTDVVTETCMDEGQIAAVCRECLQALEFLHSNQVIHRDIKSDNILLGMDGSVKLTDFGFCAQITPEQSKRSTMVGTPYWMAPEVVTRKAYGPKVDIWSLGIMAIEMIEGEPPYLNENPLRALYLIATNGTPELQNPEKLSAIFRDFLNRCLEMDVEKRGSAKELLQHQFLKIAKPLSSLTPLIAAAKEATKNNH

MDA-MB-231 [13] = assay: Antiproliferative activity against human MDA-MB-231 cells; format: functional, cell-based

Row | IC50 (MDA-MB-231 [1]) [µM] | IC50 [12] [µM] | IC50 (MDA-MB-231 [13]) [µM] | Compound | inhibition (MDA-MB-231 [2]) | inhibition (MDA-MB-231 [3]) | inhibition (MDA-MB-231 [4]) | inhibition (MDA-MB-231 [5]) | inhibition (MDA-MB-231 [6]) | inhibition (MDA-MB-231 [7]) | viability at 2.5 µM (MDA-MB-231 [8]) [%] | Activity (MDA-MB-231 [9]) [%] | Activity (MDA-MB-231 [10]) [%] | Activity (MDA-MB-231 [11]) [%]
1 | 3.23 | – | – | CCn1c(=O)c(-c2ccc(-c3cncs3)cc2Cl)cc2cnc(Nc3ccc(N4CCN(C)CC4)cc3)nc21 | Active | Active | Active | Active | inactive | Active | 97.2 | 1.67 | 1.08 | 0.058
2 | 28.6 | 0.052 | 28.6 | CNc1ncc2cc(-c3ccc(Cl)cc3Cl)c(=O)[nH]c2n1 | – | – | – | – | – | – | – | – | – | –
